Measurements published in US12038433B2, “Methods and apparatus for high-throughput screening for testing permeability and retention of compounds across biological barriers” (Board of Regents, The University of Texas System, priority 2019, dated 2024).

Columns and labels:
[1] = 96-well plate permeation study of doxycycline, skin measured with mass spec pen; assay type: in vitro ADME; conditions: 24 hours, different concentrations applied
Procedure: A permeation study was done using the 96-well plates screening method over a course of 24 hours. Doxycycline at different concentrations was used as a model drug. After 24 hours, the receptor fluid was removed, and the plates were disassembled. The mass spec pen (described by Zhang et al. and Sans et al.) was used to measure the amount of doxycycline on the top layers of the skin (epidermis side) and on the bottom layers of the skin (dermis side) by flipping the skin upside down (26, 27).

[2] = Feasibility in vitro permeation study using squared and flat 384-well plates; assay type: in vitro ADME; conditions: 8 h, between the 0.5 mg/ml SRB and the 0.05 mg/ml SRB applied, lateral diffusion present
Procedure: Feasibility studies were conducted using squared and flat 384-well plates with no ridges or projected wells. The plates were assembled the same way as presented in Example 4. […] […] […] Samples were taken after 8 h and measured using fluorescence in a plate reader.

[3] = Permeation of SRB across tape-stripped skin, 96-well HTS compared with Franz cells, receptor fluid fluorescence; assay type: in vitro ADME, human; conditions: SRB 0.5 mg/ml, 8 h, 32° C., p-value >0.05 (FIG. 7)
Excerpt: “The 96-well plates, with and without bottom, were modified by inserting 2 symmetric and parallel holes in each side of the plate using a drill. The holes were made in order to attach the plates together as a sandwich. The skin was tape-stripped 15 times, rubbing with a thumb three times before each strip (in the same manner as for the Franz cells). Tape-stripping was necessary to allow for drug permeation across the skin and direct quantification in the receptor compartment. […] The receptor fluid analysis was needed to compare permeability of SRB between methods (FC and HTS).”
“The 96-well plate with the bottom was used as the receptor compartment. The volume of each well is 380 μL and the area of diffusion is 0.38 cm^2. The receptor compartment was overfilled with degassed PBS (pH=7.4) to avoid the formation of any bubbles that would hinder drug permeation. […]
The plate was incubated at 32° C. for 1 h. […] After 8 h, the plates were disassembled and the receptor plate was analyzed using a spectrophotometer (Infinite M200 microplate reader, TECAN US Inc, NC, USA) for the quantification of fluorescence intensity (λexcitation=550 nm and λemission=590 nm). Standard solutions of SRB in PBS (pH=7.4) in the range of 500-0.03 μg/ml were prepared and the fluorescence intensity was measured to obtain the calibration curve. […]

[4] = HTS formulation screening, permeability of SRB across the skin into the receptor fluid (plate reader fluorescence); assay type: in vitro ADME, human; conditions: not statistically significant (FIG. 10 E)
Procedure: (§1) Two bottomless 96-well plates from Greiner bio-one were used.
(§2) The receptor plate was sealed with an adhesive film and overfilled with PBS (pH=7.4).
(§3) An 8×9 cm of skin tissue was placed on top of the receptor plate, dermis side in contact with the receptor fluid and stratum corneum up. The donor plate was placed on top of the skin. A 4 kg weight was placed on top and nuts were attached to the plate.
(§4) This sandwich was incubated for 1 hour at 32 deg C. and 75 rpm. After 1 hour, the formulations prepared in Table 1 and containing 0.5 mg/ml of SRB as a model hydrophilic drug were applied in triplicate to the donor wells.
(§5) The receptor compartment was analyzed by fluorescence using a plate reader and the skin was analyzed using 2 photon microscopy, the same way as described in Example 4. Images were collected at 256×256 pixels and 223.78 μm×223.78 μm. The z-axis profile was obtained by acquiring images at every 10 μm down the skin, up to 200 μm. The detailed 2-photon analysis utilized in this study took approximately 2 h (around a minute to 2 min for each well).

[5] = Skin retention analysis of SRB by two-photon-induced fluorescence imaging (FC vs HTS); assay type: in vitro ADME, human; conditions: surface down to 150 μm, after 8 h (FIG. 8)
Excerpt: A two-photon-induced fluorescence imaging was used to determine the retention of SRB in the skin using a Prairie Technologies Ultimalntravital 2PA confocal microscope system (Park et al., 2008; Denk et al., 1990). The microscope objective was an Olympus® 10×, 0.30 NA, UMPlanFL N water immersion lens. Two-photon laser excitation was provided by a Spectra-Physics Tsunami® Ti:Sapphire laser with a τP=150 fs and P=108 mW. The laser was tuned to 1000 nm, since SRB excites at 550 nm and no skin autofluorescence is observed at this wavelength. Four fluorescence channels were detected simultaneously during imaging. The photomultiplier tube (PMT) bias voltages for each channel were set to 650 V for channel 1, 650 V for channel 2 (where SRB is detected), 800 V for channel 3 (where we can measure the autofluorescence of the skin), and 800 V for channel 4. Skin autofluorescence or second harmonic generation of collagen were detected in channels 3 and 4, respectively (Roberts et al., 2011). The fluorescence emission of SRB was recorded in channel 2 (λ=595±35 nm) since the wavelength of emission for SRB is 590 nm. Skin images were recorded above the surface of the skin and the maximum fluorescence intensity was considered to be the top layer or surface of the skin since excess of formulation was still present at the top of the skin at the end of the permeation study (8 h). […]

[6] = not tape-stripped; cited from earlier work
[7] = HTS formulation screening, retention of SRB in skin layers by 2 photon microscopy (3x2x3 full factorial design); assay type: in vitro ADME, human
Procedure: as §1, §2, §3, §4, §5
A 3×2×3 full factorial design was used to design the experiment and statistically analyze the differences in permeation and retention of the formulations applied in the skin.

| permeation, amount on top (epidermis side) and bottom (dermis side) layers of the skin [1] | permeability of SRB across the skin [2] | permeation and distribution of the drug, Franz cells (FC) vs HTS [3] | amount of drug across the skin, into the receptor solution ([4]; OA (oleic acid) in the formulation) | amount of SRB across the skin ([4]; increasing the concentration of Tween 80) | depth profile/Z-axis profile, relative change in fluorescence intensity over every 5 μm depth in the skin, FC vs HTS [5] | Statistically significant variables on the amount of SRB retained ([7]; skin depth 0 μm, solvent ratio factor) | Statistically significant variables on the amount of SRB retained ([7]; skin depth 0 μm, surfactant concentration factor) | Statistically significant variables on the amount of SRB retained ([7]; skin depth 20 μm, solvent ratio factor) | Statistically significant variables on the amount of SRB retained ([7]; skin depth 20 μm, surfactant concentration factor) | Statistically significant variables on the amount of SRB retained ([7]; skin depth 100 μm, solvent ratio factor) | Statistically significant variables on the amount of SRB retained ([7]; skin depth 100 μm, surfactant concentration factor) | Statistically significant variables on the amount of SRB retained ([7]; skin depth 150 μm) | Structure (SMILES) | permeation across intact skin [6] | amount of SRB inside the skin ([7]; 5% and 2.5% surfactant concentration compared to no surfactant, post hoc analysis) | amount of the model drug in the skin layers ([7]; DMSO alone compared to 50:50 mixture of DMSO:Propylene glycol) | amount of SRB into the skin ([7]; DMSO compared to Propylene glycol alone, only at lower depths (100-150 micrometers)) | amount of drug inside the skin ([7]; OA (oleic acid) in the formulation, PG solvent (FIG. 10 A, B)) | amount of SRB inside the skin ([7]; increasing the concentration of Tween 80, PG solvent (FIG. 10 C, D)) |
| --- | --- | --- | --- | --- | --- | --- | --- | --- | --- | --- | --- | --- | --- | --- | --- | --- | --- | --- | --- |
| Changes in permeation were detected | – | – | – | – | – | – | – | – | – | – | – | – | C[C@H]1c2cccc(O)c2C(=O)C2=C(O)[C@]3(O)C(=O)C(C(N)=O)=C(O)[C@@H](N(C)C)[C@@H]3[C@@H](O)[C@@H]21 [Doxycycline] | – | – | – | – | – | – |
| – | changed | almost identical | also across the skin | not across the skin | similar | Solvent ratio (*) | Surfactant concentration (**) | Solvent ratio (**) | Surfactant concentration (*) | Solvent ratio (**) | Surfactant concentration (*) | Solvent ratio (**) | CCN(CC)c1ccc2c(-c3ccc(S(=O)(=O)O)cc3S(=O)(=O)[O-])c3ccc(=[N+](CC)CC)cc-3oc2c1 [SRB, Sulforhodamine B] | unable to permeate intact skin | increases the amount of SRB inside the skin | enhances the amount of the model drug in all the skin layers | significantly enhance the amount of SRB into the skin | increased the amount of drug inside the skin | increased the amount of SRB inside the skin |
